Experimental data published in patent publication US20260070927A1, “INDAZOLE MACROCYCLES FOR THE TREATMENT OF AUTOIMMUNE DISEASE” (Hoffmann-La Roche Inc., priority 2022, published 2026).

Tests used:
[1] = biological target: human stimulator of interferon genes (STING) (139-379) (Homo sapiens (Human), UniProt Q86WV6); test: Microliter plate-based TR-FRET competition-binding assay for binders of STING; conditions: Alexa488 probe, read-out: FRET_IC50
Experimental: This is the competition-binding assay to test the compounds' potency to the C-terminal Domain (CTD) and ligand-binding domain of human stimulator of interferon genes (STING). STING (139-379, Q86WV6, http://www.uniprot.org/uniprot) recombinant protein (in 20 mM Tris, 150 mM NaCl, pH 8.0, and expression in Escherichia coli (E. coli) BL21 (DE3)) with a C-terminal flag-tag was employed for the assay. When Alexa-488 labeled active site probe (refer to patent WO2017/175156 A1) bounds to STING (139-379), it accepts the 485 nm emission from Tb-M2-Flag-STING and results in an increase in fluorescence at 520 nm. Compounds that compete for the probe-binding site will reduce 520 nm signal. The assay was run in proxiplate-384 plus (PerkinElmer, cat: 60150300) containing of 2.5 nM STING, 2.5 nM M2-Tb (Cisbio, 61FG2TLA, Lot: 17 A) and 250 nM Alexa488 probe. Plates were centrifuged for 1 min at 1000 rpm, incubated for 30 min at room temperature, and then measured the dual fluorescence emission at 520 nm/485 nM following 320 nm laser excitation on an Envision plate reader (Perkin-Elmer). The compounds' effect on the STING binding is detected by measuring ratiometric fluorescence from time-resolved FRET. The percentage of inhibition of at each compound concentration is calculated on the basis of their changes of TR-FRET efficiency relative to the change of TR-FRET caused by positive control 2′3′cGAMP (Sigma, cat: SML1229).

[2] = test system: STING (IFN-β in hPBMC); test: hPBMC cytokine functional assay (IFN-β decrease after Baculovirus stimulation); format: cell-based; conditions: Homo sapiens, Baculovirus MOI 40, 24 hours, read-out: hPBMC_IC50
Experimental: The inhibition of STING by compounds could be measured by the decrease of IFN-β in hPBMC, which is stimulated by a double stranded DNA virus Baculoviurs (Purchased from Genescript, pCMV-Dest Vector virus generation P2 BV stock virus, Sf-900 II medium with 5% FBS, Lot C9835DK230-2/P4DL001). Frozen hPBMC cells (purchased from Stemcell Technologies, cat number is 70025, Lot 191070803C) were thawed at 37° C. water bath, then cells were re-suspended in 50 ml tube using 20 ml Cell culture medium, and then centrifuged for 5 min at 2000 rpm before the supernatant was removed carefully. The cells were re-suspended in culture medium (RPMI-1640 with 1.5 g/L NaHCO3, 4.5 g/L glucose, 10 mM HEPES and 1 mM Na-pyruvate, 10% HI-FBS); 65 μL of the cell suspension was dispensed into 384 well plate (70K cells/well) by Multidrop Combi with at least 3 hours incubation at 37° C., 5% CO2 cell incubator.
Then 4 μL of compound solution per well (final 0.5% DMSO) was transferred by Agilent Bravo followed by infection with 11 μL of Baculovirus at a final MOI of 40. The level of IFN-β secreted in the supernatant of hPBMC was determined after 24 hours of incubation at 37° C. cell incubator by human IFN-β HTRF assay (Cisbio, cat: 62HIFNBPEH) following the manufacture's instruction. CellTiter-Glo kit (Promega, cat: G7573) was applied for the cell viability evaluation using Envision.

human stimulator of interferon genes (STING) (139-379), sequence (Q86WV6 139-379): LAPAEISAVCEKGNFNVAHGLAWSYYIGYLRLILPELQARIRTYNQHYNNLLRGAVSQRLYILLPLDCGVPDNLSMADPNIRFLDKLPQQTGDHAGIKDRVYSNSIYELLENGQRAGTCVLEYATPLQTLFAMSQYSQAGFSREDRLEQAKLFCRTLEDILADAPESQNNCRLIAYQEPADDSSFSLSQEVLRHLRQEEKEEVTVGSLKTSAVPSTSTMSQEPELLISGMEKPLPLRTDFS

Compound | IC50 [1] [nM] | IC50 [2] [nM]
Cn1nc2cccc3c2c1CCCNC(=O)[C@@H]1C[C@@H](CN1c1ncnc2c1cnn2-c1ccc(F)cc1F)Oc1cccc-3c1 [Example 1, (8S,11S)-10-[1-(2,4-difluorophenyl)pyrazolo[3,4-d]pyrimidin-4-yl]-18-methyl-7-oxa-10,13,18,19-tetrazapentacyclo[15.6.1.1^2,6.1^8,11.0^20,24]hexacosa-1(23),2(26),3,5,17(24),19,21-heptaen-12-one] | 0.8 | 486
CN1CCCc2c3c(cccc3nn2C)-c2cccc(c2)O[C@H]2C[C@@H](C1=O)N(c1ncnc3c1cnn3-c1ccc(F)cc1F)C2 [Example 2, (8S,11S)-10-[1-(2,4-difluorophenyl)pyrazolo[3,4-d]pyrimidin-4-yl]-13,18-dimethyl-7-oxa-10,13,18,19-tetrazapentacyclo[15.6.1.1^2,6.1^8,11.0^20,24]hexacosa-1(23),2(26),3,5,17(24),19,21-heptaen-12-one] | 2.7 | 594
CN1CCCc2c3c(cccc3nn2C)-c2cccc(n2)N[C@H]2C[C@@H](C1=O)N(c1ncnc3c1cnn3-c1ccc(F)cc1F)C2 [Example 3, (8S,11S)-10-[1-(2,4-difluorophenyl)pyrazolo[3,4-d]pyrimidin-4-yl]-13,18-dimethyl-7,10,13,18,19,26-hexazapentacyclo[15.6.1.1^2,6.1^8,11.0^20,24]hexacosa-1(23),2(26),3,5,17(24),19,21-heptaen-12-one] | 0.6 | 288
CN1CCCc2c3c(cccc3nn2C)-c2ccnc(n2)N[C@H]2C[C@@H](C1=O)N(c1nccn3c(-c4ccc(F)cc4F)ncc13)C2 [Example 5, (8S,11S)-10-[3-(2,4-difluorophenyl)imidazo[1,5-a]pyrazin-8-yl]-13,18-dimethyl-5,7,10,13,18,19,26-heptazapentacyclo[15.6.1.1^2,6.1^8,11.0^20,24]hexacosa-1(23),2,4,6(26),17(24),19,21-heptaen-12-one] | 3.8 | 308
COc1cc2nc(c1)-c1cccc3nn(C)c(c13)CCCN(C)C(=O)[C@@H]1C[C@@H](CN1c1ncnc3c1cnn3-c1ccc(F)cc1F)N2 [Example 13, (8S,11S)-10-[1-(2,4-difluorophenyl)pyrazolo[3,4-d]pyrimidin-4-yl]-4-methoxy-13,18-dimethyl-7,10,13,18,19,26-hexazapentacyclo[15.6.1.1^2,6.1^8,11.0^20,24]hexacosa-1(23),2,4,6(26),17(24),19,21-heptaen-12-one] | 4.7 | 224
COc1cc2nc(c1)-c1cccc3nn(C)c(c13)CCCN(C)C(=O)[C@@H]1C[C@@H](CN1c1ncnc3c1cnn3-c1ccc(F)cc1OC)N2 [Example 14, (8S,11S)-10-[1-(4-fluoro-2-methoxy-phenyl)pyrazolo[3,4-d]pyrimidin-4-yl]-4-methoxy-13,18-dimethyl-7,10,13,18,19,26-hexazapentacyclo[15.6.1.1^2,6.1^8,11.0^20,24]hexacosa-1(23),2,4,6(26),17(24),19,21-heptaen-12-one] | 4.8 | 255
Cn1nc2cccc3c2c1CCCN(CC1CC1)C(=O)[C@@H]1C[C@@H](CN1c1ncnc2c1cnn2-c1ccc(F)cc1F)Oc1cccc-3c1 [Example 15, (8S,11S)-13-(cyclopropylmethyl)-10-[1-(2,4-difluorophenyl)pyrazolo[3,4-d]pyrimidin-4-yl]-18-methyl-7-oxa-10,13,18,19-tetrazapentacyclo[15.6.1.1^2,6.1^8,11.0^20,24]hexacosa-1(23),2(26),3,5,17(24),19,21-heptaen-12-one] | 1.6 | 140
Cn1nc2cccc3c2c1CCCN(Cc1cscn1)C(=O)[C@@H]1C[C@@H](CN1c1ncnc2c1cnn2-c1ccc(F)cc1F)Oc1cccc-3c1 [Example 17, (8S,11S)-10-[1-(2,4-difluorophenyl)pyrazolo[3,4-d]pyrimidin-4-yl]-18-methyl-13-(thiazol-4-ylmethyl)-7-oxa-10,13,18,19-tetrazapentacyclo[15.6.1.1^2,6.1^8,11.0^20,24]hexacosa-1(23),2(26),3,5,17(24),19,21-heptaen-12-one] | 2.2 | 
C=CCN1CCCc2c3c(cccc3nn2C)-c2cccc(c2)O[C@H]2C[C@@H](C1=O)N(c1ncnc3c1cnn3-c1ccc(F)cc1F)C2 [Example 20, (8S,11S)-13-allyl-10-[1-(2,4-difluorophenyl)pyrazolo[3,4-d]pyrimidin-4-yl]-18-methyl-7-oxa-10,13,18,19-tetrazapentacyclo[15.6.1.1^2,6.1^8,11.0^20,24]hexacosa-1(23),2(26),3,5,17(24),19,21-heptaen-12-one] | 1.9 | 346
COCCN1CCCc2c3c(cccc3nn2C)-c2cccc(c2)O[C@H]2C[C@@H](C1=O)N(c1ncnc3c1cnn3-c1ccc(F)cc1F)C2 [Example 21, (8S,11S)-10-[1-(2,4-difluorophenyl)pyrazolo[3,4-d]pyrimidin-4-yl]-13-(2-methoxyethyl)-18-methyl-7-oxa-10,13,18,19-tetrazapentacyclo[15.6.1.1^2,6.1^8,11.0^20,24]hexacosa-1(23),2(26),3,5,17(24),19,21-heptaen-12-one] | 2 | 380
Cn1nc2cccc3c2c1CCCN(CCN1CCOCC1)C(=O)[C@@H]1C[C@@H](CN1c1ncnc2c1cnn2-c1ccc(F)cc1F)Oc1cccc-3c1 [Example 23, (8S,11S)-10-[1-(2,4-difluorophenyl)pyrazolo[3,4-d]pyrimidin-4-yl]-18-methyl-13-(2-morpholinoethyl)-7-oxa-10,13,18,19-tetrazapentacyclo[15.6.1.1^2,6.1^8,11.0^20,24]hexacosa-1(23),2(26),3,5,17(24),19,21-heptaen-12-one] | 1.6 | 279
Cn1nc2cc(F)cc3c2c1CCCN(CCN1CCOCC1)C(=O)[C@@H]1C[C@@H](CN1c1ncnc2c1cnn2-c1ccc(F)cc1F)Oc1cccc-3c1 [Example 25, (8S,11S)-10-[1-(2,4-difluorophenyl)pyrazolo[3,4-d]pyrimidin-4-yl]-22-fluoro-18-methyl-13-(2-morpholinoethyl)-7-oxa-10,13,18,19-tetrazapentacyclo[15.6.1.1^2,6.1^8,11.0^20,24]hexacosa-1(23),2(26),3,5,17(24),19,21-heptaen-12-one] | 18.4 | 549
Cn1nc2cccc3c2c1CCCN(CCCn1cncn1)C(=O)[C@@H]1C[C@@H](CN1c1ncnc2c1cnn2-c1ccc(F)cc1F)Oc1cccc-3c1 [Example 37, (8S,11S)-10-[1-(2,4-difluorophenyl)pyrazolo[3,4-d]pyrimidin-4-yl]-18-methyl-13-[3-(1,2,4-triazol-1-yl)propyl]-7-oxa-10,13,18,19-tetrazapentacyclo[15.6.1.1^2,6.1^8,11.0^20,24]hexacosa-1(23),2(26),3,5,17(24),19,21-heptaen-12-one] | 1.5 | 
COCCOCCCN1CCCc2c3c(cccc3nn2C)-c2cccc(c2)O[C@H]2C[C@@H](C1=O)N(c1ncnc3c1cnn3-c1ccc(F)cc1F)C2 [Example 39, (8S,11S)-10-[1-(2,4-difluorophenyl)pyrazolo[3,4-d]pyrimidin-4-yl]-13-[3-(2-methoxyethoxy)propyl]-18-methyl-7-oxa-10,13,18,19-tetrazapentacyclo[15.6.1.1^2,6.1^8,11.0^20,24]hexacosa-1(23),2(26),3,5,17(24),19,21-heptaen-12-one] | 5.5 | 
